The values below come from patent publication US12043612B2, “Methods of manufacturing a bifunctional compound, ultrapure forms of the bifunctional compound, and dosage forms comprising the same” (Arvinas Operations, Inc., priority 2020, dated 2024).

This data set is described as follows: Solubility in pH 6.5 simulated intestinal fluid (SIF). The class given is physicochemical.

Values after ≈ are worked out from the molar mass of the structure shown. Where two headings read alike, the source gives them in different places.

As for `N#Cc1ccc(O[C@H]2CC[C@H](NC(=O)c3ccc(N4CCC(CN5CCN(c6cc7c(cc6F)C(=O)N(C6CCC(=O)NC6=O)C7=O)CC5)CC4)nn3)CC2)cc1Cl` (some centres unmarked) [Compound A, N-[(1r,4r)-4-(3-chloro-4-cyanophenoxy)cyclohexyl]-6-[4-({4-[2-(2,6-dioxopiperidin-3-yl)-6-fluoro-1,3-dioxo-2,3-dihydro-1H-isoindol-5-yl]piperazin-1-yl}methyl)piperidin-1-yl]pyridazine-3-carboxamide], the solubility (commonly how much of the substance goes into solution per volume) is 1.2 µg/mL (≈ 1.48 µM) (fassif, thermodynamic from solid, pH 6.5 simulated intestinal fluid (SIF), read-out: crystalline solid's solubility) and 30 µg/mL (≈ 36.9 µM) (pH 6.5, fassif, read-out: amorphous solubility in SIF).
